The results in this text go back to patent US20260265189A1, “NOVEL COMPOUND, AND PHARMACEUTICAL COMPOSITION COMPRISING SAME AS ACTIVE INGREDIENT” (SAPIENSBIO INC., priority 2022, published 2026).

The subject of this assay is α-SMA expression in MRC5 cells. In words: inhibition of α-SMA expression in MRC5 cells, image screening method. The format is cell-based. Conditions: Homo sapiens; MRC5, compound 10 μM, TGF-β1 5 ng/mL, 72 hours, relative to TGF-β1 alone; read-out: Inhibitory activity (α-SMA expression inhibition). How it is done: The ability of the compounds according to the present invention to inhibit the expression of α-SMA, which is a biomarker for pulmonary fibrosis, was evaluated by an image screening method. MRC5 cells were treated with the compound (10 μM) or DMSO under the condition of TGF-31 (5 ng/mL). 72 hours later, the cells were fixed with a 4% formaldehyde solution, treated with a 0.1% Triton-x100 solution, and treated with a 1% BSA solution to mask non-specific binding caused by antibodies. Anti-α-SMA-FITC (Sigma Aldrich) and anti-GAPDH (Cell Signaling Technology) were used as primary antibodies, and anti-mouse-TRITC was used as a secondary antibody. Imaging and analysis of the results were performed using Cytation5_Gen5_Version 3.12.08 (Bio Tek). Relative to the α-SMA expression level when TGF-31 was treated alone, the α-SMA expression level when both the compound and TGF-31 were treated was calculated as the ability of α-SMA expression inhibition of the corresponding compound.
As usually defined, the inhibition is how much of the control response was suppressed. `O=C(N[C@H]1CCNC1)N1CCN(c2ccc(F)cc2)c2ccccc21` [Compound 49, (S)-4-(4-fluorophenyl)-N-(pyrrolidin-3-yl)-3,4-dihydroquinoxaline-1(2H)-carboxamide]: the inhibition at 10 µM was 10 to 30%.
In the case of `CC(C)N1CC[C@H](NC(=O)N2CCN(c3ccc(F)cc3)c3cc(F)ccc32)C1` [Compound 10, (S)-6-fluoro-4-(4-fluorophenyl)-N-(1-isopropylpyrrolidin-3-yl)-3,4-dihydroquinoxaline-1(2H)-carboxamide], the inhibition at 10 µM is no less than 70%.
On to `O=C(N[C@H]1CCNC1)N1CCN(c2ccc(F)cc2)c2cc(F)ccc21` [Compound 8, (S)-6-fluoro-4-(4-fluorophenyl)-N-(pyrrolidin-3-yl)-3,4-dihydroquinoxaline-1(2H)-carboxamide], for which the inhibition at 10 µM is no less than 70%.
Then `CC(C)CN1CC[C@@H](CNC(=O)N2CCN(c3ccc(F)cc3)c3ccccc32)C1` [Compound 60, (S)-4-(4-fluorophenyl)-N-((1-isobutylpyrrolidin-3-yl)methyl)-3,4-dihydroquinoxaline-1(2H)-carboxamide], with 50 to 70%; and `CN1CC[C@H](CNC(=O)N2CCN(c3ccc(F)cc3)c3cc(F)ccc32)C1` [Compound 18, (R)-6-fluoro-4-(4-fluorophenyl)-N-((1-methylpyrrolidin-3-yl)methyl)-3,4-dihydroquinoxaline-1(2H)-carboxamide], with 50 to 70%.
For `O=C(NCC1CCOC1)N1CCN(c2ccc(F)cc2)c2cc(F)ccc21` (stereo not shown) [Compound 48, 6-fluoro-4-(4-fluorophenyl)-N-((tetrahydrofuran-3-yl)methyl)-3,4-dihydroquinoxaline-1(2H)-carboxamide], the inhibition at 10 µM was 10 to 30%.
The result for `O=C(NC1CCNCC1)N1CCN(c2ccc(F)cc2)c2ccccc21` [Compound 50, 4-(4-fluorophenyl)-N-(piperidin-4-yl)-3,4-dihydroquinoxaline-1(2H)-carboxamide] reads 30 to 50%.
The result for `O=C(NC[C@H]1CCNC1)N1CCN(c2ccc(F)cc2)c2cc(F)ccc21` [Compound 17, (S)-6-fluoro-4-(4-fluorophenyl)-N-(pyrrolidin-3-ylmethyl)-3,4-dihydroquinoxaline-1(2H)-carboxamide] reads 30 to 50%; that for `O=C(N[C@@H]1CCNC1)N1CCN(Cc2ccc(Cl)cc2)c2ccccc21` [Compound 95, (R)-4-(4-chlorobenzyl)-N-(pyrrolidin-3-yl)-3,4-dihydroquinoxaline-1(2H)-carboxamide], no less than 70%; that for `CN1CC[C@@H](NC(=O)N2CCN(Cc3ccccc3F)c3ccccc32)C1` [Compound 87, (R)-4-(2-fluorobenzyl)-N-(1-methylpyrrolidin-3-yl)-3,4-dihydroquinoxaline-1(2H)-carboxamide], 50 to 70%.
Then `N[C@H]1CCN(C(=O)N2CCN(Cc3ccccc3)c3ccccc32)C1` [Compound 85, (S)-(3-aminopyrrolidin-1-yl)(4-benzyl-3,4-dihydroquinoxalin-1(2H)-yl)methanone], with 30 to 50%.
Take `CC(C)CN1CC[C@@H](NC(=O)N2CCN(C3CCCCC3)c3ccccc32)C1` [Compound 106, (R)-4-cyclohexyl-N-(1-isobutylpyrrolidin-3-yl)-3,4-dihydroquinoxaline-1(2H)-carboxamide]: the inhibition at 10 µM is 30 to 50%.
Then `O=C(N[C@@H]1CCNC1)N1CCN(C2CCCCC2)c2ccccc21` [Compound 104, (R)-4-cyclohexyl-N-(pyrrolidin-3-yl)-3,4-dihydroquinoxaline-1(2H)-carboxamide], with 10 to 30%.
The result for `O=C(N[C@@H]1CCOC1)N1CCN(c2cccnc2)c2ccccc21` [Compound 73, (R)-4-(pyridin-3-yl)-N-(tetrahydrofuran-3-yl)-3,4-dihydroquinoxaline-1(2H)-carboxamide] reads 30 to 50%; that for `CN1CCC[C@@H]1CNC(=O)N1CCN(c2ccc(F)cc2)c2cc(F)ccc21` [Compound 22, (R)-6-fluoro-4-(4-fluorophenyl)-N-((1-methylpyrrolidin-2-yl)methyl)-3,4-dihydroquinoxaline-1(2H)-carboxamide], no less than 70%.
In the case of `CC(C)CN[C@H]1CCN(C(=O)N2CCN(Cc3ccccn3)c3ccccc32)C1` [Compound 96, (S)-(3-(isobutylamino)pyrrolidin-1-yl)(4-(pyridin-2-ylmethyl)-3,4-dihydroquinoxalin-1(2H)-yl)methanone], the inhibition at 10 µM fell in the range of 30 to 50%.
Then `CC(C)CC(=O)N1CCN(C(=O)NCC2CCNCC2)c2ccccc21` [Compound 125, 4-(3-methylbutanoyl)-N-(piperidin-4-ylmethyl)-3,4-dihydroquinoxaline-1(2H)-carboxamide], with 10 to 30%; and `CN(C)[C@H]1CCN(C(=O)N2CCN(Cc3ccccn3)c3ccccc32)C1` [Compound 97, (S)-(3-(dimethylamino)pyrrolidin-1-yl)(4-(pyridin-2-ylmethyl)-3,4-dihydroquinoxalin-1(2H)-yl)methanone], with 10 to 30%.
The result for `CC(C)CN1CCC[C@@H]1CNC(=O)N1CCN(c2ccc(F)cc2)c2cc(F)ccc21` [Compound 24, (R)-6-fluoro-4-(4-fluorophenyl)-N-((1-isobutylpyrrolidin-2-yl)methyl)-3,4-dihydroquinoxaline-1(2H)-carboxamide] reads no less than 70%.
Then `CC(C)CN1CCC(CNC(=O)N2CCN(c3ccc(F)cc3)c3cc(F)ccc32)CC1` [Compound 35, 6-fluoro-4-(4-fluorophenyl)-N-((1-isobutylpiperidin-4-yl)methyl)-3,4-dihydroquinoxaline-1(2H)-carboxamide], with no less than 70%.
Take `O=C(NC[C@H]1CCNC1)N1CCN(c2ccc(F)cc2)c2ccccc21` [Compound 53, (S)-4-(4-fluorophenyl)-N-(pyrrolidin-3-ylmethyl)-3,4-dihydroquinoxaline-1(2H)-carboxamide]: the inhibition at 10 µM is 10 to 30%.
Then `O=C(NCC1CCOCC1)N1CCN(c2ccc(F)cc2)c2ccccc21` [Compound 52, 4-(4-fluorophenyl)-N-((tetrahydro-2H-pyran-4-yl)methyl)-3,4-dihydroquinoxaline-1(2H)-carboxamide], with 10 to 30%; and `CC(=O)N1CC[C@@H](NC(=O)N2CCN(c3ccc(F)cc3)c3cc(F)ccc32)C1` [Compound 6, (R)-N-(1-acetylpyrrolidin-3-yl)-6-fluoro-4-(4-fluorophenyl)-3,4-dihydroquinoxaline-1(2H)-carboxamide], with 10 to 30%.
Then `CN1CCC(CNC(=O)N2CCN(c3ccc(F)cc3)c3cc(F)ccc32)CC1` [Compound 34], with 50 to 70%.
For `CC(C)CN1CC[C@@H](NC(=O)N2CCN(c3ccc(F)cc3)c3cc(F)ccc32)C1` [Compound 4, (R)-6-fluoro-4-(4-fluorophenyl)-N-(1-isobutylpyrrolidin-3-yl)-3,4-dihydroquinoxaline-1(2H)-carboxamide], the inhibition at 10 µM is no less than 70%.
Then `CN1CC[C@@H](CNC(=O)N2CCN(c3ccc(F)cc3)c3ccccc32)C1` [Compound 58, (S)-4-(4-fluorophenyl)-N-((1-methylpyrrolidin-3-yl)methyl)-3,4-dihydroquinoxaline-1(2H)-carboxamide], with 30 to 50%.
Then `O=C(N[C@@H]1CCOC1)N1CCN(Cc2ccccn2)c2ccccc21` [Compound 98, (R)-4-(pyridin-2-ylmethyl)-N-(tetrahydrofuran-3-yl)-3,4-dihydroquinoxaline-1(2H)-carboxamide], with 30 to 50%.
Then `O=C(N[C@@H]1CCN(C(=O)C(F)(F)F)C1)N1CCN(c2ccc(F)cc2)c2cc(F)ccc21` [Compound 5, (R)-6-fluoro-4-(4-fluorophenyl)-N-(1-(2,2,2-trifluoroacetyl)pyrrolidin-3-yl)-3,4-dihydroquinoxaline-1(2H)-carboxamide], with 10 to 30%; and `CN1CCC(CNC(=O)N2CCN(Cc3ccccc3F)c3ccccc32)CC1` [Compound 89, 4-(2-fluorobenzyl)-N-((1-methylpiperidin-4-yl)methyl)-3,4-dihydroquinoxaline-1(2H)-carboxamide], with 50 to 70%; and `CN1CCN(C(=O)N2CCN(c3ccccc3Cl)c3ccccc32)CC1` [Compound 68, (4-(2-chlorophenyl)-3,4-dihydroquinoxalin-1(2H)-yl)(4-methylpiperazin-1-yl)methanone], with 30 to 50%.
Regarding `O=C(NCC1CCOC1)N1CCN(Cc2ccccn2)c2ccccc21` (stereo not shown) [Compound 100, 4-(pyridin-2-ylmethyl)-N-((tetrahydrofuran-3-yl)methyl)-3,4-dihydroquinoxaline-1(2H)-carboxamide], the inhibition at 10 µM is 30 to 50%.
For the compound `CC(C)N1CCC(NC(=O)N2CCN(c3cnccn3)c3ccccc32)CC1` [Compound 83, N-(1-isopropylpiperidin-4-yl)-4-(pyrazin-2-yl)-3,4-dihydroquinoxaline-1(2H)-carboxamide], the inhibition at 10 µM fell in the range of 10 to 30%.
For the compound `O=C(NCC1CC1)N1CCN(c2ccncc2)c2ccccc21` [Compound 74, N-(cyclopropylmethyl)-4-(pyridin-4-yl)-3,4-dihydroquinoxaline-1(2H)-carboxamide], the inhibition at 10 µM lay in the range of 30 to 50%.
The result for `O=C(N[C@@H]1CCNC1)N1CCN(Cc2ccccc2)c2ccccc21` [Compound 84, (R)-4-benzyl-N-(pyrrolidin-3-yl)-3,4-dihydroquinoxaline-1(2H)-carboxamide] reads 30 to 50%.
